{"source": "patent US8940310B2", "about": "“Methods of treatment using TLR7 and/or TLR9 inhibitors” (Dynavax Technologies Corporation, priority 2010, dated 2015)", "key": {"[1]": {"assay": "Monomer and tetramer formation of IRPs, size-exclusion HPLC", "type": "physicochemical", "details": "100 mg/mL in PBS and 0.5M KCl, room temperature", "method": "Solutions were prepared of the by mixing 100 mg/mL of the IRP sequences in PBS and 0.5M KCl and storing at room temperature for three to five weeks. The solutions were subsequently analyzed by size-exclusion HPLC."}, "[2]": {"assay": "High dosages of IRPs in mice (weight, histology)", "type": "in vivo, BALB/c mice", "details": "100 mg/kg SC days 1, 4, 7, 10", "method": "To test the activity of IRPs at high dosages in mice, IRPs or a control (saline) were subcutaneously administered to BALB/c mice at a dosage of 4 mg/kg, 20 mg/kg, 50 mg/kg, or 100 mg/kg on days 1, 4, 7, and 10 (n=5 per group). Mice were weighed prior to administration and on days 2, 4, 7, 9, and 11. Serum cytokines were assayed at two hours post the first and third injections and 24 hours post the fourth injection. Organs were harvested at the end of the study, and organ weights and tissues levels of the oligonucleotides were determined. In addition, histological evaluation of the liver, kidney, and heart was performed.\nMice were weighed prior to administration and on days 1, 3, 4, 6, 7, and 9. Organs were harvested at the end of the study, and organ weights and tissues levels of the oligonucleotides were determined. In addition, histological evaluation of the liver, kidney, and heart was performed."}, "human B-cells": {"system": "human B-cells", "assay": "Human B-cells cultured in the presence of IRPs, IL-6", "protocol": "For the human B-cell assay, B-cells were purified from total blood cells obtained from healthy donors using magnetic beads (CD19 positive). Cells were resuspended in fresh medium (RPMI 1640 with 10% fetal calf serum, 50 units/mL penicillin, 50 μg/mL streptomycin, and 2 mM glutamine). At 48 hours, supernatants were collected and cytokine levels, IL-6, were measured using immunoassay.\nTo further investigate the effect of IRPs on B-cell stimulatory activity, a wide variety of IRP sequences were assayed for IL-6, along with positive and negative controls. The experiment was performed as described in Example 1 using doses of IRP of either 4.0 μM or 2.0 μM. The positive control was an immunostimulatory sequence (ISS) with SEQ ID NO:157. […] The results are presented as the average normalized IL-6 response over several experiments."}, "[3]": {"assay": "High dosages of IRPs in rats (weight, deaths, histology)", "type": "in vivo, Sprague Dawley rats", "details": "rat; for Heart: Cell Vacuolation, number of animals / Heart: Hemorrhage, number of animals / Heart: Mononuclear Cell Infiltration, number of animals / Heart: Necrosis, number of animals / Heart: No significant changes, number of animals / Liver: Liver changes, number of animals / Liver: Mixed cell infiltration, number of animals / Liver: Necrosis, number of animals / Liver: No significant changes, number of animals / Liver: Vacuolation, number of animals / Right Kidney: Hydronephrosis, number of animals / Right Kidney: Mineralization, number of animals / Right Kidney: Necrosis, number of animals / Right Kidney: No significant changes, number of animals / Right Kidney: Tubular basophilia, number of animals / Right Kidney: Tubular changes, number of animals: 6 animals", "method": "To test the activity of IRPs at high dosages in rats, IRPs (SEQ ID NO:42 and SEQ ID NO:109) or a control (PBS) were subcutaneously administered to 8-9 weeks old, […], 3, 6, and 9 (n=6 per group). Rats were weighed prior to administration and on days 1, 3, 4, 6, 7, and 9. Organs were harvested at the end of the study, and organ weights and tissues levels of the oligonucleotides were determined. In addition, histolocial evaluation of the liver, kidney, and heart was performed.\nRats were weighed prior to administration and on days 1, 3, 6, 7, and 9. Organs were harvested at the end of the study, and organ weights and tissues levels of the oligonucleotides were determined. In addition, histological evaluation of the liver, kidney, and heart was performed."}, "[4]": {"details": "Experiment # 4, Max Conc 4.0 uM"}, "[5]": {"details": "Experiment # 5, Max Conc 4.0 uM"}, "[6]": {"details": "Experiment # 6, Max Conc 4.0 uM"}, "[7]": {"details": "Experiment # 7, Max Conc 4.0 uM"}, "[8]": {"details": "10 mg/kg, 0 = no change to 4 = severe"}, "[9]": {"details": "90 mg/kg, 0 = no change to 4 = severe"}}, "note": "[I] = hypoxanthine (inosine); d = 2'-deoxy (DNA); m = 2'-O-methyl", "data": [{"substance": "5′-UGC TGC TCC TTG AGI GGT TGT TTG T-3′ (DNA UGCTGCTCCTTGAGNGGTTGTTTGT; DNA, [I] at 15, backbone and methylation of C not given here) [SEQ ID NO:109]", "values": [{"measurement": "fraction in monomer form", "setting": "[1]; five weeks", "value": 100, "unit": "%"}, {"measurement": "fraction in monomer form", "setting": "[1]; three weeks", "value": 100, "unit": "%"}, {"measurement": "weight loss as % gain versus pre-dose", "setting": "[2]", "value": "provoked weight loss"}, {"measurement": "Normalized IL-6 Response (Percentage of Positive Control)", "setting": "human B-cells; Experiment # 1, Max Conc 4.0 uM", "value": 58, "unit": "%"}, {"measurement": "Normalized IL-6 Response (Percentage of Positive Control)", "setting": "human B-cells; Experiment # 2, Max Conc 4.0 uM", "value": 52, "unit": "%"}, {"measurement": "Normalized IL-6 Response (Percentage of Positive Control)", "setting": "human B-cells; Experiment # 3, Max Conc 4.0 uM", "value": 39, "unit": "%"}, {"measurement": "Normalized IL-6 Response (Percentage of Positive Control)", "setting": "human B-cells; [4]", "value": 45, "unit": "%"}, {"measurement": "Normalized IL-6 Response (Percentage of Positive Control)", "setting": "human B-cells; [5]", "value": 53, "unit": "%"}, {"measurement": "Normalized IL-6 Response (Percentage of Positive Control)", "setting": "human B-cells; [6]", "value": 58, "unit": "%"}, {"measurement": "Normalized IL-6 Response (Percentage of Positive Control)", "setting": "human B-cells; [7]", "value": 45, "unit": "%"}, {"measurement": "Normalized IL-6 Response (Percentage of Positive Control)", "setting": "human B-cells; Experiment # 8, Max Conc 2.0 uM", "value": 42, "unit": "%"}, {"measurement": "Normalized IL-6 Response (Percentage of Positive Control)", "setting": "human B-cells; Experiment # 9, Max Conc 2.0 uM", "value": 64, "unit": "%"}, {"measurement": "Normalized IL-6 Response (Percentage of Positive Control)", "setting": "human B-cells; Experiment # 10, Max Conc 2.0 uM", "value": 63, "unit": "%"}, {"measurement": "Normalized IL-6 Response (Percentage of Positive Control)", "setting": "human B-cells; Experiment # 11, Max Conc 2.0 uM", "value": 54, "unit": "%"}, {"measurement": "B-cell response as evidenced by IL-6 produced", "setting": "human B-cells; human B-cells with IRP alone, 48 hours, FIGS. 1A-B", "value": "induced a B-cell response"}, {"measurement": "Kidney: tubular basophilia", "setting": "[3]; 10 mg/kg", "value": "occurred"}, {"measurement": "organ weight of the liver, heart, kidney, or spleen", "setting": "[3]; 10 mg/kg or 100 mg/kg SC days 0, 3, 6, 9", "value": "no significant difference"}, {"measurement": "Heart: Cell Vacuolation, number of animals", "setting": "[3]; 10 mg/kg", "value": 0}, {"measurement": "Heart: Hemorrhage, number of animals", "setting": "[3]; 10 mg/kg", "value": 0}, {"measurement": "Heart: Mononuclear Cell Infiltration, number of animals", "setting": "[3]; 10 mg/kg", "value": 0}, {"measurement": "Heart: Necrosis, number of animals", "setting": "[3]; 10 mg/kg", "value": 0}, {"measurement": "Heart: No significant changes, number of animals", "setting": "[3]; 10 mg/kg", "value": 6}, {"measurement": "Liver: Liver changes, number of animals", "setting": "[3]; 10 mg/kg", "value": 6}, {"measurement": "Liver: Mixed cell infiltration, number of animals", "setting": "[3]; 10 mg/kg", "value": 6}, {"measurement": "Liver: Necrosis, number of animals", "setting": "[3]; 10 mg/kg", "value": 0}, {"measurement": "Liver: No significant changes, number of animals", "setting": "[3]; 10 mg/kg", "value": 0}, {"measurement": "Liver: Vacuolation, number of animals", "setting": "[3]; 10 mg/kg", "value": 0}, {"measurement": "Right Kidney: Hydronephrosis, number of animals", "setting": "[3]; 10 mg/kg", "value": 0}, {"measurement": "Right Kidney: Mineralization, number of animals", "setting": "[3]; 10 mg/kg", "value": 0}, {"measurement": "Right Kidney: Necrosis, number of animals", "setting": "[3]; 10 mg/kg", "value": 0}, {"measurement": "Right Kidney: No significant changes, number of animals", "setting": "[3]; 10 mg/kg", "value": 0}, {"measurement": "Right Kidney: Tubular basophilia, number of animals", "setting": "[3]; 10 mg/kg", "value": 6}, {"measurement": "Right Kidney: Tubular changes, number of animals", "setting": "[3]; 10 mg/kg", "value": 6}, {"measurement": "Liver: Liver changes, mean severity score", "setting": "[3]; [8]", "value": 1.0}, {"measurement": "Liver: Mixed cell infiltration, mean severity score", "setting": "[3]; [8]", "value": 2.5}, {"measurement": "Right Kidney: Tubular basophilia, mean severity score", "setting": "[3]; [8]", "value": 1.5}, {"measurement": "Right Kidney: Tubular changes, mean severity score", "setting": "[3]; [8]", "value": 1.0}, {"measurement": "Heart: cellular vacuolation", "setting": "[3]; 90 mg/kg", "value": "present in some animals"}, {"measurement": "Heart: hemorrhage and necrosis", "setting": "[3]; 90 mg/kg", "value": "noted"}, {"measurement": "Kidney: tubular basophilia", "setting": "[3]; 90 mg/kg", "value": "occurred"}, {"measurement": "Liver: hepatocellular cytoplasmic vacuolation", "setting": "[3]; 90 mg/kg", "value": "hepatocellular cytoplasmic vacuolation"}, {"measurement": "Liver: hepatocellular necrosis", "setting": "[3]; 90 mg/kg", "value": "hepatocellular necrosis"}, {"measurement": "Renal necrosis", "setting": "[3]; 90 mg/kg", "value": "noted"}, {"measurement": "deaths two days after the first dose", "setting": "[3]; 90 mg/kg SC, n=6", "value": "one rat died"}, {"measurement": "Heart: Cell Vacuolation, number of animals", "setting": "[3]; 90 mg/kg", "value": 5}, {"measurement": "Heart: Hemorrhage, number of animals", "setting": "[3]; 90 mg/kg", "value": 1}, {"measurement": "Heart: Mononuclear Cell Infiltration, number of animals", "setting": "[3]; 90 mg/kg", "value": 0}, {"measurement": "Heart: Necrosis, number of animals", "setting": "[3]; 90 mg/kg", "value": 1}, {"measurement": "Heart: No significant changes, number of animals", "setting": "[3]; 90 mg/kg", "value": 0}, {"measurement": "Liver: Liver changes, number of animals", "setting": "[3]; 90 mg/kg", "value": 6}, {"measurement": "Liver: Mixed cell infiltration, number of animals", "setting": "[3]; 90 mg/kg", "value": 6}, {"measurement": "Liver: Necrosis, number of animals", "setting": "[3]; 90 mg/kg", "value": 6}, {"measurement": "Liver: No significant changes, number of animals", "setting": "[3]; 90 mg/kg", "value": 0}, {"measurement": "Liver: Vacuolation, number of animals", "setting": "[3]; 90 mg/kg", "value": 6}, {"measurement": "Right Kidney: Hydronephrosis, number of animals", "setting": "[3]; 90 mg/kg", "value": 0}, {"measurement": "Right Kidney: Mineralization, number of animals", "setting": "[3]; 90 mg/kg", "value": 1}, {"measurement": "Right Kidney: Necrosis, number of animals", "setting": "[3]; 90 mg/kg", "value": 1}, {"measurement": "Right Kidney: No significant changes, number of animals", "setting": "[3]; 90 mg/kg", "value": 0}, {"measurement": "Right Kidney: Tubular basophilia, number of animals", "setting": "[3]; 90 mg/kg", "value": 5}, {"measurement": "Right Kidney: Tubular changes, number of animals", "setting": "[3]; 90 mg/kg", "value": 5}, {"measurement": "Heart: Cell Vacuolation, mean severity score", "setting": "[3]; [9]", "value": 1.8}, {"measurement": "Heart: Hemorrhage, mean severity score", "setting": "[3]; [9]", "value": 3.0}, {"measurement": "Heart: Necrosis, mean severity score", "setting": "[3]; [9]", "value": 1.0}, {"measurement": "Liver: Liver changes, mean severity score", "setting": "[3]; [9]", "value": 3.5}, {"measurement": "Liver: Mixed cell infiltration, mean severity score", "setting": "[3]; [9]", "value": 2.0}, {"measurement": "Liver: Necrosis, mean severity score", "setting": "[3]; [9]", "value": 2.0}, {"measurement": "Liver: Vacuolation, mean severity score", "setting": "[3]; [9]", "value": 2.0}, {"measurement": "Right Kidney: Mineralization, mean severity score", "setting": "[3]; [9]", "value": 1.0}, {"measurement": "Right Kidney: Necrosis, mean severity score", "setting": "[3]; [9]", "value": 4.0}, {"measurement": "Right Kidney: Tubular basophilia, mean severity score", "setting": "[3]; [9]", "value": 3.0}, {"measurement": "Right Kidney: Tubular changes, mean severity score", "setting": "[3]; [9]", "value": 2.0}, {"measurement": "total weight and % weight gain/loss", "setting": "[3]; 100 mg/kg", "value": "decrease in total weight and % weight gain/loss"}]}, {"substance": "5′-UGC TGC TCC TTG AGI GG (DNA UGCTGCTCCTTGAGNGG; sugars from the 5' end m3 d14, [I] at 15, backbone not given here) [SEQ ID NO:117]", "values": [{"measurement": "Normalized IL-6 Response (Percentage of Positive Control)", "setting": "human B-cells; [5]", "value": 17, "unit": "%"}, {"measurement": "Normalized IL-6 Response (Percentage of Positive Control)", "setting": "human B-cells; [6]", "value": 13, "unit": "%"}]}, {"substance": "5′-TGC TCC TTG AGG GGT TGT-3′ (DNA TGCTCCTTGAGGGGTTGT; DNA, backbone not given here; further chemistry not fully specified) [SEQ ID NO:69]", "values": [{"measurement": "Normalized IL-6 Response (Percentage of Positive Control)", "setting": "human B-cells; [4]", "value": 11, "unit": "%"}, {"measurement": "Normalized IL-6 Response (Percentage of Positive Control)", "setting": "human B-cells; [7]", "value": 11, "unit": "%"}]}]}
